Values of other authors, collected in US20160303203A1, “COMPOSITIONS AND METHODS FOR THE TREATMENT OF WOUNDS” (priority 2013, published 2016).

Tested on: diabetic ulcers
Conditions: patients with diabetic ulcers treated with phenytoin; control group 45 days

Question: For O=C1NC(=O)C(c2ccccc2)(c2ccccc2)N1 [phenytoin, 5.5-diphenyl-2,4-imidazolidinedione], which mean healing time is on record?
Answer: 21 days
